Test results taken from US9102636B2, “Analgesic compounds, compositions, and uses thereof” (Galleon Pharmaceuticals, Inc., priority 2010, dated 2015).
Values joined by “and” are separate entries in the source; they are usually repeats but may differ in a detail not shown here. Equal values may be shown once. “Also recorded” adds a separate entry of the source.

Tests used:
[1] = L-012 assay: inhibition of SIN-1 generated peroxynitrite induced luminescence/fluorescence of L-012; type: biochemical; conditions: 15 minute time point; average of three plates
Description: Luminol like compound “L-012” is a chemilumescent probe that is activated by the presence of a ROS and/or RNS such as peroxynitrite. In this assay L-012 was oxidized by the addition of 3-Morpholino-sydnonimine (“SIN-1”), a known peroxynitrite generator. The emitted fluorescence was directly proportional to the concentration of SIN-1. The compounds of the invention were then assessed for their ability to scavenge peroxynitrite by blocking the increase of peroxynitrite induced fluorescence. Concentrations of compound producing 50% inhibition of the fluorescence signal (IC50 values) were calculated by testing the compounds of the invention at various concentrations and averaging the IC50 of three plates.
The following solutions were added to white polystyrene, non-sterile 96-well plate (Costar #3912): 196 μL of 50 μM L-012; 2 μL of the test compound; and 24 μL of 500 mM SIN-1. Fresh stock of 50 μM L-012 in PBS pH 7.4 was made for each 96 well plate that was analyzed. The plates were read in a FlexStation3 (Molecular Devices) using the luminescent mode at 37° C. for 30 min, with a measurement every 30 seconds and an integration time of 100 msec.
Luminescence signal was recorded by the FlexStation3 kinetically at 37° C. for 30 minutes, with a measurement every 30 seconds and an integration time of 100 msec. The data in rows A and H were dropped from each plate to exclude the possibility of an ‘edge effect’. Thus, each test compound had 3 replicates per plate.

[2] = tested on: FCA induced tactile allodynia; assay: FCA induced tactile allodynia (electronic von Frey); type: in vivo, rat
Description: (§1) Compound 2 was evaluated in the rat Freund's complete adjuvant (FCA) model of inflammatory pain. The rat Freund's complete adjuvant (FCA) intraplantar model of inflammatory pain produces behaviors similar to those observed in patients and has been widely used to assess novel pharmacological treatments (Lam et al., 2008, J Ethnopharmacol. 120:44-50). The positive control was celecoxib (TRC, Montreal), and the negative control was vehicle (0.5% methyl cellulose, in phosphate buffered saline). […] The Hargreaves apparatus was obtained from Ugo Basile, Italy. The Freund's complete adjuvant was obtained from Sigma, St. Louis, and the electronic von frey was obtained from Stoelting, Ill. For this assay, paw withdrawal latency to a thermal stimulus was assessed using a radiant heat source (Ugo Basile, Italy) aimed at the plantar surface of the left hind paw (Hargreaves test; […] Paw withdrawal thresholds to a non-noxious tactile stimulus was assessed using an electronic von Frey apparatus that presented an increasing mechanical force to the plantar surface of the hind paw. Paw volume was measured by displacement of water and assuming a tissue density equal to that of water. […] Celecoxib (30 mg/kg p.o.) served as the positive control. […] After induction of anesthesia, the injection site was prepared in a sterile manner and 100 μl of a 50% suspension of FCA injected. After injection, animals were weighed and allowed to recover before being returned to their home cages. Statistical significance was determined on untransformed data using a two-way analysis of variance (Graphpad Prism, NC). Significant main effects were analyzed further by subsequent Bonferronni post-hoc test. The level of significance was set at p<0.05. Data are shown as mean±S.E.M. (with an asterisk to denote significance as compared to vehicle treated controls).

FCA induced edema = FCA induced edema (paw volume); type: in vivo, rat
Description: as §1

[3] = tested on: spinal nerve ligation induced tactile allodynia; assay: Spinal nerve ligation (SNL, Chung model) induced tactile allodynia (von Frey filaments); type: in vivo, rat; conditions: for Paw withdrawal threshold: FIG. 24, fasted; for Paw withdrawal threshold / Paw threshold: individual animals; for Paw threshold: FIG. 25, gabapentin (positive control, 100 mg/kg i.p.)
ataxia (rotarod) = assay: Accelerating rotarod assay of ataxia (latency to fall); type: in vivo, rat; conditions: for Latency to fall: Haloperidol 3 mg/kg p.o., maximum 300 seconds, individual animals
Description: Compound 2 was evaluated in a rat accelerating rotarod model of ataxia. Ataxia is a common clinical problem with CNS-active compounds and can often confound interpretation of efficacy in preclinical pain models. The rotarod assay of ataxia has been widely used to assess the side-effect liability of novel pharmacological treatments (Jones & Roberts, 1968, J. Pharm. […] The positive control was haloperidol (Sigma, St. […] Male Sprague-Dawley Rats (Harlan, Ill.) were 250-300 g at time of dosing. Rotarod was obtained from IITC, CA. To examine the potential effects of Compound 2 on motor performance, rats were tested on an accelerating rotarod (IITC, Ca). […] Rats received two timed training trials (averaged to give the reported baseline) on the first day, then 24 hr later rats were administered Compound 2 (30, 100 and 300 mg/kg, p.o.), haloperidol (3 mg/kg, p.o.), the positive control, or vehicle. […] Statistical significance was determined on untransformed data using a two-way analysis of variance (Graphpad Prism, NC). Significant main effects were analyzed further by subsequent Bonferronni post-hoc test. The level of significance was set at p<0.05. Data are shown as mean±S.E.M. (with an asterisk to denote significance as compared to vehicle treated controls).

## CC1(C)SC(Nc2ccccc2O)=N[C@H]1C(=O)O [Compound 1, (S)-2-(2-hydroxyphenylamino)-thiazoline-5,5-dimethyl-4-carboxylic acid]
[1]
  IC50: 270 nM

## COC(=O)[C@@H]1N=C(Nc2cc(Cl)ccc2O)SC1(C)C [Compound 20, (S)-2-(2-Hydroxy-5-chlorophenylamino)-thiazoline-5,5-dimethyl-4-carboxylic acid methyl ester]
[1]
  IC50: 550 nM

## CC1(C)SC(Nc2cc(Cl)ccc2O)=N[C@H]1C(=O)O [Compound 21, (S)-2-(2-Hydroxy-5-chlorophenylamino)-thiazoline-5,5-dimethyl-4-carboxylic acid]
[1]
  IC50: 260 nM

## Cc1ccc(O)c(NC2=N[C@@H](C(=O)O)C(C)(C)S2)c1 [Compound 24, (S)-2-(2-Hydroxy-5-methylphenylamino)-thiazoline-5,5-dimethyl-4-carboxylic acid]
[1]
  IC50: 540 nM

## COc1ccc(NC2=N[C@@H](C(=O)O)C(C)(C)S2)c(O)c1 [Compound 26, (S)-2-(2-Hydroxy-4-methoxyphenylamino)-thiazoline-5,5-dimethyl-4-carboxylic acid]
[1]
  IC50: 140 nM

## COC(=O)[C@@H]1N=C(Nc2ccc(OC)cc2O)SC1(C)C [Compound 27, (S)-2-(2-Hydroxy-4-methoxyphenylamino)-thiazoline-5,5-dimethyl-4-carboxylic acid methyl ester]
[1]
  IC50: 300 nM

## Cc1ccc(-c2cc(C(F)(F)F)nn2-c2ccc(S(N)(=O)=O)cc2)cc1 [celecoxib, reference compound]
[2]; 60 (min post-dose), celecoxib 30 mg/kg p.o. 24 hours post-FCA
  Paw withdrawl threshold: 29.9 g and 32.4 g and 19.8 g and 23.2 g and 30.9 g
[2]; baseline (pre-FCA), celecoxib 30 mg/kg group, individual rats
  Paw withdrawl threshold: 31.8 g (2×) and 39.4 g and 25.93 g and 36.6 g and 37.73 g
FCA induced edema; 24 hrs post, Celecoxib (30 mg/kg p.o.), FIG. 20A
  Paw volume: 2.8 mL and 3.1 mL and 2.7 mL and 3 mL and 2.2 mL
FCA induced edema; 48 hrs post, Celecoxib (30 mg/kg p.o.), FIG. 20A
  Paw volume: 2.7 mL and 2.8 mL and 2.2 mL
FCA induced edema; FCA/celecoxib, 30 mg/kg p.o., 1 hr (D2), individual animals, 30 mg/kg
  Paw volume: 2.3 mL (2×) and 2.6 mL and 2.4 mL (2×) and 2.7 mL (2×) and 2.5 mL
FCA induced edema; FCA/celecoxib, 30 mg/kg p.o., 1 hr, individual animals, 30 mg/kg
  Paw volume: 2.7 mL (3×) and 2.9 mL and 2.6 mL and 3.1 mL and 3 mL (2×)
FCA induced edema; FCA/celecoxib, 30 mg/kg p.o., 3 hrs (D2), individual animals, 30 mg/kg
  Paw volume: 2.4 mL and 2.5 mL (2×) and 2.3 mL (2×) and 2.7 mL and 2.6 mL and 2.8 mL
FCA induced edema; FCA/celecoxib, 30 mg/kg p.o., 3 hrs, individual animals, 30 mg/kg
  Paw volume: 2.7 mL (3×) and 2.9 mL (2×) and 2.8 mL and 3.1 mL and 2.6 mL
FCA induced edema; FCA/celecoxib, 30 mg/kg p.o., Pre-Drug (D2), individual animals, 30 mg/kg
  Paw volume: 2.4 mL and 2.6 mL (2×) and 2.3 mL (2×) and 2.5 mL and 2.7 mL and 2.8 mL
FCA induced edema; FCA/celecoxib, 30 mg/kg p.o., Pre-Drug, individual animals, 30 mg/kg
  Paw volume: 2.8 mL (3×) and 3.1 mL (2×) and 2.9 mL and 3 mL and 3.2 mL
FCA induced edema; FCA/celecoxib, 30 mg/kg p.o., Pre-FCA (baseline), individual animals, 30 mg/kg
  Paw volume: 1.7 mL (6×) and 1.8 mL and 1.9 mL
FCA induced edema; Pre-FCA, Celecoxib (30 mg/kg p.o.) group, individual rats, FIG. 20A
  Paw volume: 1.8 mL and 1.9 mL (2×) and 1.7 mL (2×) and 1.5 mL

## NCC1(CC(=O)O)CCCCC1 [gabapentin, reference compound]
[3]; gabapentin 100 mg/kg i.p., 3 hrs (D1)
  Paw withdrawal threshold: 15 g (4×) and 5.18 g and 3.67 g and 6.58 g and 5.56 g
[3]; gabapentin 100 mg/kg i.p., 3 hrs (D3)
  Paw withdrawal threshold: 15 g (3×) and 3.33 g and 11.69 g and 8.61 g and 6.58 g and 9.86 g
[3]; gabapentin 100 mg/kg i.p., 5 hrs (D1)
  Paw withdrawal threshold: 10.31 g and 5.56 g and 6.58 g (2×) and 1.99 g and 6.66 g and 7.94 g and 6.4 g
[3]; gabapentin 100 mg/kg i.p., 5 hrs (D3)
  Paw withdrawal threshold: 15 g (2×) and 4.4 g and 4.72 g and 2.37 g and 6.58 g and 7.31 g and 6.66 g
[3]; gabapentin 100 mg/kg i.p., Pre-Drug (D1)
  Paw withdrawal threshold: 6.64 g and 1.65 g and 1.33 g and 1.56 g and 2.81 g (2×) and 4.23 g and 5.04 g
[3]; gabapentin 100 mg/kg i.p., Pre-Drug (D3)
  Paw withdrawal threshold: 6.64 g and 1.56 g and 1.4 g and 1.65 g and 5.57 g and 3.55 g and 3.58 g and 2.81 g
[3]; gabapentin 100 mg/kg i.p., Pre-Sx
  Paw withdrawal threshold: 15 g
[3]; 1 wk, 100 mg/kg
  Paw threshold: 1.56 g (2×) and 6.58 g (2×) and 3.73 g and 2.2 g and 4.25 g and 1.4 g
[3]; 2 wks, 100 mg/kg
  Paw threshold: 0.99 g and 1.31 g and 3.13 g and 1.4 g (2×) and 2.81 g (3×)
[3]; Pre-Sx
  Paw threshold: 15 g
[3]; rat, gabapentin 100 mg/kg i.p., 3 and 5 hours after each administration
  reversal of SNL tactile allodynia, positive control: consistently produced a statistically significant reversal of allodynia; also recorded: statistically significant reversal of hyperalgesia
[3]; rat, gabapentin, FIG. 25
  development of SNL tactile allodynia, positive control dosed only on day of surgery: failed to alter the course of development of allodynia

## O=C(CCCN1CCC(O)(c2ccc(Cl)cc2)CC1)c1ccc(F)cc1 [haloperidol, reference compound]
Ataxia (rotarod); Baseline
  Latency to fall: 60 s and 38 s and 42.5 s and 59 s and 68 s and 48 s and 86 s and 62 s and 71 s and 80 s and 57 s
Ataxia (rotarod); Post-Drug (1 hr)
  Latency to fall: 9 sec and 10 sec (2×) and 7 sec and 2 sec (2×) and 5 sec (2×) and 6 sec and 30 sec and 15 sec
Ataxia (rotarod); rat, haloperidol 3 mg/kg p.o., 1 h post-administration
  latency to fall, accelerating rotarod, positive control: significant motor deficits; also recorded: substantial reduction in latency
